Measurements reported in EP3858357A1, “USE OF AZOLE COMPOUNDS TO STIMULATE THE IMMUNE SYSTEM AND AS INHIBITORS FOR S-PLA2GIB” (Diaccurate, priority 2020, dated 2021).
pIC50: −log10 of the molar value.

Columns and labels:
[1] = target: sPLA2hGV (Homo sapiens, UniProt P39877); assay: Inhibition of sPLA2hGV enzymatic activity (method of Rouault et al., 2006); assay type: biochemical; settings: 3-300 µM tested; Figure 2B
[2] = target: binding between mPLA2R1 receptor and sPLA2hGIB (Homo sapiens, UniProt P04054); assay: AlphaLISA-based competition test of sPLA2hGIB binding to soluble HA-tagged mPLA2R1; settings: decrease of binding between mPLA2R1 and sPLA2hGIB; Figure 3B
Sequence of binding between mPLA2R1 receptor and sPLA2hGIB (P04054 23-148): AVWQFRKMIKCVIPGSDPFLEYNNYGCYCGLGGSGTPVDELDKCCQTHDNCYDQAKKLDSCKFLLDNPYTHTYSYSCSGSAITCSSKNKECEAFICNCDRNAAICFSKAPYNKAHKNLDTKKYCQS
Excerpt: (§1) • Figure 1: Screening of the inhibition of sPLA2hGIB enzymatic activity by small molecules previously identified by in silico screening. 0% represents non-specific hydrolysis in the absence of sPLA2hGIB, and 100 % represents sPLA2hGIB activity with DMSO (1 %). […] The condition 'no hGIB' (0%) represents the non-specific hydrolysis of phospholipids present in E. coli membranes radio-labeled with [^3H]oleate. […] HA-tagged receptors are in the presence of sPLA2hGIB or sPLA2hGIIF, then in the presence of a specific biotinylated anti-sPLA2 antibody; "acceptor" beads are coupled to an anti-HA antibody (PerkinElmer) and "donor" beads are coupled to Streptavidine (PerkinElmer).
The inventors have developed and used an AlphaLISA®-based test (Figure 3A) capable of detecting binding between the soluble form of mPLA2R1 (which includes the whole extracellular part), and sPLA2hGIB. […]
HA-tagged receptors are in the presence of sPLA2 of interest, then in the presence of a specific biotinylated anti-sPLA2 antibody; "acceptor" beads are coupled to an anti-HA antibody (PerkinElmer) and "donor" beads are coupled to Streptavidine (PerkinElmer). The binding of a HA-tagged receptor and a sPLA2 of interest in solution, results in a proximity of donor and acceptor beads, allowing for energy transfer and the production of a light signal, which is then measured.

[3] = target: sPLA2hGIB (Homo sapiens, UniProt P04054); assay: Inhibition of sPLA2hGIB enzymatic activity, [3H]oleate-labelled E. coli membranes (method of Rouault et al., 2006); assay type: biochemical; settings: sPLA2hGIB (2 pM) pre-incubated with 10, 30, 100, 300 µM; Figure 2A
Sequence of sPLA2hGIB (P04054 23-148): as above
Excerpt: as §1
The condition 'no hGIB' (0%) represents the non-specific hydrolysis of phospholipids present in E. coli membranes radio-labeled with [^3H]oleate.

[4] = target: T1, sPLA2hGX (Homo sapiens, UniProt O15496); assay: Inhibition of sPLA2hGX enzymatic activity (method of Rouault et al., 2006); assay type: biochemical; settings: 3-300 µM tested; Figure 2B
T1 sequence (O15496 43-165): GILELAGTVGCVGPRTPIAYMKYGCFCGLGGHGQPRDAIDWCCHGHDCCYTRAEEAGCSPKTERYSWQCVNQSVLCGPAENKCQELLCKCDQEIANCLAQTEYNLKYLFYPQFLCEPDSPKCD

[5] = target: T2, sPLA2hGIIA (Homo sapiens, UniProt P14555); assay: Inhibition of sPLA2hGIIA enzymatic activity (method of Rouault et al., 2006); assay type: biochemical; settings: 3-300 µM tested; Figure 2B
T2 sequence (P14555 21-144): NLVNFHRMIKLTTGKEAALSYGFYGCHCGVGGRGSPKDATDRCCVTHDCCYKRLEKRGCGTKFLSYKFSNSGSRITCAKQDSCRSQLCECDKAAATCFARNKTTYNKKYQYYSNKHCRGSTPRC

Sequence of sPLA2hGV (P39877 21-138): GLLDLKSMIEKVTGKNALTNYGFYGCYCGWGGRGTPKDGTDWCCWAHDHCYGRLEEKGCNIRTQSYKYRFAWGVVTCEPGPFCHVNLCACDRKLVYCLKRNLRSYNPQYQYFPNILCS

- pIC50 [1]: < 3.52
- pIC50 [2]: ~4.00
- pIC50 [3]: 3.82 to 4.00
- pIC50 [4]: ~3.82
- pIC50 [5]: < 3.52
Compound: CC(C)N1CCN(c2ccc(OCC3COC(Cn4cncn4)(c4ccc(Cl)cc4Cl)O3)cc2)CC1 [Terconazole, 1-{[(2S,4S)-2-(2,4-dichlorophenyl)-4-{[p-(4-isopropyl-1-piperazinyl)phenoxy]methyl}-1,3-dioxolan-2-yl]methyl}-1H-1,2,4-azole]
